This test concerns the target T1, S1P4 (Homo sapiens, UniProt O95977).
T1 construct: expressed in transfected cells
T1 sequence (O95977 1-384): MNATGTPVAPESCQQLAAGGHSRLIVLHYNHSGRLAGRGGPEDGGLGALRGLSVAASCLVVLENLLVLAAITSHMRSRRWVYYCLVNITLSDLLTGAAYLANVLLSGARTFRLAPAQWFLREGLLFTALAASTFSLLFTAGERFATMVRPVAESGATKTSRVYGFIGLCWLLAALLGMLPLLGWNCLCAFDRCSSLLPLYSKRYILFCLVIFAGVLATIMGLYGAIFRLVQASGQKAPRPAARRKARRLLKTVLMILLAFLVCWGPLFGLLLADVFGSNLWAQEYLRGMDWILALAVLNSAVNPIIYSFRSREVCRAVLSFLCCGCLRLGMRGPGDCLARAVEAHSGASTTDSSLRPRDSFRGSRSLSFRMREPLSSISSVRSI
Put plainly: Calcium mobilization assay, CHO cells expressing S1P4. Format: cell-based. The procedure:
An expression vector for the human S1P4 gene (HSEDG4; GenBank Accession Number AJ000479) fused to the c-myc peptide tag at the C-terminus is obtained as described in Van Brocklyn et al. 2000, Blood 95(8), 2624. The encoding DNA for the S1P4-myc fusion protein is cloned in the mammalian expression vector pRc/CMV (Invitrogen), which confers G418 resistance for the selection of stable mammalian cells. The DNA sequence of the S1P4 insert is determined on both strands. […] The S1P4-myc cDNA is inserted into the pRc/CMV vector using HindIII/XbaI.
To develop stable cell lines expressing the c-myc tagged S1P4 receptor 5 μg of plasmid pRc/CMV myc-S1P4 is cut using restriction endonuclease PvuI, which cleaves the plasmid once. The linearized plasmid is then precipitated using a final concentration of 0.3M sodium acetate, pH5.0 and 66% ethanol. […] Individual clones that grew after the sort and selection procedure are expanded and one clone is finally selected based on the level of S1P4 mRNA expression determined by TaqMan quantitative PCR analysis.
CHO cells are plated in black Costar plate (96 or 384 well, 50,000 cells or 12,500 cells, respectively) in a MEM with FCS and cultured for 20-24 h at 37° C. in a CO2 incubator. […] After measuring the baseline for 40 sec, the agonist in HBSS is added and the fluorescence is measured at intervals of 2 sec for 3 to 5 min. […]

On to `NC(CNC(=O)c1cc2c(-c3ccccc3Cc3ccccc3)cccc2[nH]1)C(=O)O` (stereo not shown) [Example 2], for which the EC50 stood at 10 nM.

The values above are taken from patent US7754896B2, “Indol-alanine derivatives as selective S1P4-agonists” (Novartis AG, priority 2004, dated 2010).
